{"source": "patent US20250290117A1", "about": "“MOLECULAR PHENOTYPIC ANTIMICROBIAL SUSCEPTIBILITY TESTING” (priority 2024, published 2025)", "key": {"[1]": {"test_system": "Escherichia coli", "assay": "Molecular phenotypic antimicrobial susceptibility test (extraction or DNA purification prior to PCR)", "format": "cell-based", "summary_of_the_method": "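Patient specimens in boric acid were grown in culture medium, adjusted to 0.5 McFarland by optical density, then incubated 12-16 hours with antimicrobials in Mueller Hinton Broth at breakpoint concentrations. Growth was read by semi-quantitative PCR, alongside a no-antimicrobial well for pathogen load.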"}, "[2]": {"test_system": "E. coli", "assay": "Molecular phenotypic antimicrobial susceptibility test with direct PCR (no extraction DNA purification step)", "format": "cell-based, Escherichia coli", "procedure": "(§1) Detection of Molecular Phenotypic Antimicrobial Susceptibility. Disclosed herein are the methods for the detection of phenotypic antimicrobial susceptibility via molecular methods. The present invention describes how a specimen 100 with a known microbial load is incubated and then exposed to a panel of antimicrobial agents to determine sensitivity (prevention of growth) or resistance (allowance of growth) to the specific antimicrobial agents tested utilizing molecular methods.\nSample Collection. Specimens 100 are collected from patients using sterile collection processes that are employed in routine clinical care. Specimens are transported to the testing facility in boric acid preservative. Specimens 100 are subsequently divided into a first sample 104 and a second sample 108.\nPreparation of the Specimens for Testing. The specimens 100 are put through a pathogen identification process using PCR technology (e.g., using the first sample 104). The process for pathogen isolation includes steps of harvesting the pathogen (e.g., via centrifugation), isolating pathogen DNA via a DNA isolation and/or purification kit, and performing PCR on the pathogen DNA via PCR components (e.g., primers, enzymes, buffers) as would be known to the skilled artisan. Simultaneously, an additional aliquot of the same specimen (e.g., the second sample 108) is placed with liquid culture media and incubated for 4-6 hours. This aliquot is used for antimicrobial susceptibility testing if indicated based on the pathogen detection results. After pathogen identification is completed and if more than 10,000 cells/mL of bacteria (e.g., eligible bacteria) are detected in the source specimen, the second sample 108 then enters the antimicrobial susceptibility phase of testing. Specimens 100 with lower pathogen loads could also be utilized in the antibiotic susceptibility phase of testing with or without a longer incubation period.\n(§2) Preparation of Antimicrobial Susceptibility Testing Plates. Antimicrobial solutions are prepared at known concentrations. The specific antimicrobials and their concentrations are selected based on the pathogen of interest and the described antimicrobial resistance breakpoints for that specimen pathogen and antimicrobial combination. These antimicrobials have been selected based on those commonly utilized by healthcare providers in routine clinical care for the specific type of suspected infection. The number and types of antimicrobials utilized can be customized based on the infection source, pathogen detected, patient-specific factors such as allergies or other health conditions (e.g., chronic kidney disease or concurrent medication use), or healthcare provider preferences such as antimicrobial availability or cost.\nThe antimicrobial solutions are prepared in liquid culture media (such as Muller Hinton Broth) to achieve the desired antimicrobial concentration and are then stored at −80° C. until use. For a given specimen, each antimicrobial is tested at a single or multiple antimicrobial concentration(s) which is its established breakpoints for sensitivity. The antimicrobial solutions are prepared and plated out for each specific pathogen. This allows ease of use on the day of testing after defrosting the plate 112. Table 1, which illustrates the results of molecular phenotypic antimicrobial susceptibility testing when more than one organism is present in the source specimen, provides an example of an antimicrobial plate 112 prepared for this purpose. Of note, control wells containing only culture media are present on all plates 112. This allows for evaluation of pathogen load when no antimicrobial is present.\nSpecimen Exposure to Antimicrobial Agents. The 1 mL aliquot of the specimen 100 previously mixed with culture media and incubated is obtained. Using optical density measurements as a guide, the specimen 100 is diluted to 0.5 McFarland. […]"}, "[3]": {"test_system": "pathogens of clinical samples", "assay": "Molecular phenotypic antimicrobial susceptibility test of clinical samples, direct PCR without a separate DNA purification step (Table 6)", "format": "cell-based", "procedure": "as §1\nSample Collection. Specimens 100 are collected from patients using sterile collection processes that are employed in routine clinical care. Specimens are transported to the testing facility in boric acid preservative.\nPreparation of the Specimens for Testing. […] The process for pathogen isolation includes steps of harvesting the pathogen (e.g., via centrifugation), isolating pathogen DNA via a DNA isolation and/or purification kit, and performing PCR on the pathogen DNA via PCR components (e.g., primers, enzymes, buffers) as would be known to the skilled artisan. […] This aliquot is used for antimicrobial susceptibility testing if indicated based on the pathogen detection results. […] Specimens 100 with lower pathogen loads could also be utilized in the antibiotic susceptibility phase of testing with or without a longer incubation period.\nas §2\nThe antimicrobial solutions are prepared in liquid culture media (such as Muller Hinton Broth) to achieve the desired antimicrobial concentration and are then stored at −80° C. until use. For a given specimen, each antimicrobial is tested at a single or multiple antimicrobial concentration(s) which is its established breakpoints for sensitivity. The antimicrobial solutions are prepared and plated out for each specific pathogen. […] This allows for evaluation of pathogen load when no antimicrobial is present.\nSpecimen Exposure to Antimicrobial Agents. The 1 mL aliquot of the specimen 100 previously mixed with culture media and incubated is obtained. Using optical density measurements as a guide, the specimen 100 is diluted to 0.5 McFarland.\nAntimicrobial exposure plates are typically placed into an incubator for 12-16 hours.\nNucleic Acid Amplification of Antimicrobial Agent Exposed Pathogens. The antimicrobial exposure plate is removed after the period of incubation. The specimen then undergoes a purification or lysis step. For example, the specimen may undergo a purification step (e.g., magnetic bead-based or other separation protocol to isolate genetic material). In another example, the specimen may undergo a cell lysis step. For example, buffer (e.g., lysis buffer) may be added and incubated in the thermal cycler for preparation for direct PCR. Next, the specimen may undergo a polymerase chain reaction (PCR) testing protocol, whereby a semi-quantitative PCR method is utilized. This may be completed either with or without a specific extraction protocol step. The pathogens can be individually targeted and detected, or a universal genetic sequence can be utilized to detect the antimicrobial susceptibility of the specimen as a whole."}}}
{"smiles": "CC1(C)S[C@@H]2[C@H](NC(=O)[C@H](N)c3ccccc3)C(=O)N2[C@H]1C(=O)O", "note": "[Ampicillin]", "values": [{"measurement": "Molecular Antimicrobial Susceptibility Result", "setting": "[1]; E. coli isolate 4, at sensitive breakpoint", "value": "Resistant"}, {"measurement": "Ct at Sensitive Breakpoint", "setting": "[1]; E. coli isolate 5, Ct at control (average) 21.0933", "value": 24.64}, {"measurement": "Molecular Antimicrobial Susceptibility Result", "setting": "[1]; E. coli isolate 5, at sensitive breakpoint", "value": "Sensitive (Antimicrobial wells with pathogen load detected below the control wells (typically >2 cycle thresholds later) may be reported as Sensitive)"}, {"measurement": "Molecular Antimicrobial Susceptibility Result", "setting": "[2]; E. coli #1 - WDCM 00090 - 6.2×E3, specimen with <10,000 cells/mL, direct PCR after 16 hours of incubation", "value": "Sensitive (Antimicrobial wells with pathogen load detected below the control wells (typically >2 cycle thresholds later) may be reported as Sensitive)"}, {"measurement": "Ct at Sensitive Breakpoint", "setting": "[2]; E. coli #1 - WDCM 00090 - 6.2×E3, specimen with <10,000 cells/mL, direct PCR after 16 hours of incubation, Ct at control 13.787", "value": 25.93}, {"measurement": "Molecular Antimicrobial Susceptibility Result", "setting": "[2]; E. coli #2 - WDCM 00090 - 6.2×E3, specimen with <10,000 cells/mL, direct PCR after 16 hours of incubation", "value": "Sensitive (Antimicrobial wells with pathogen load detected below the control wells (typically >2 cycle thresholds later) may be reported as Sensitive)"}, {"measurement": "Ct at Sensitive Breakpoint", "setting": "[2]; E. coli #2 - WDCM 00090 - 6.2×E3, specimen with <10,000 cells/mL, direct PCR after 16 hours of incubation, Ct at control 13.46", "value": 26.22}, {"measurement": "Ct at Sensitive Breakpoint", "setting": "[2]; E. coli isolate JJ1887, direct PCR, Ct at control (average) 12.832", "value": 12.265}, {"measurement": "Molecular Antimicrobial Susceptibility Result", "setting": "[2]; E. coli isolate JJ1887, direct PCR, at sensitive breakpoint", "value": "Resistant"}, {"measurement": "Molecular Antibiotic Susceptibility Result", "setting": "[3]; E. coli, clinical sample of r10-r24", "value": "Resistant"}, {"measurement": "Ct", "setting": "[3]; E. coli, clinical sample of r10-r24, Ct control avg 12.97", "value": 12.039}, {"measurement": "Molecular Antibiotic Susceptibility Result", "setting": "[3]; E. coli, clinical sample of r158-r172", "value": "Sensitive (Antimicrobial wells with pathogen load detected below the control wells (typically >2 cycle thresholds later) may be reported as Sensitive)"}, {"measurement": "Ct", "setting": "[3]; E. coli, clinical sample of r158-r172, Ct control avg 12.894", "value": 28.274}, {"measurement": "Molecular Antibiotic Susceptibility Result", "setting": "[3]; E. faecalis, clinical sample of r93-r99", "value": "Sensitive (Antimicrobial wells with pathogen load detected below the control wells (typically >2 cycle thresholds later) may be reported as Sensitive)"}, {"measurement": "Ct", "setting": "[3]; E. faecalis, clinical sample of r93-r99, Ct control avg 22.011", "value": 29.527}, {"measurement": "Molecular Antibiotic Susceptibility Result", "setting": "[3]; E. faecalis, clinical sample of r100-r106", "value": "sensitive"}, {"measurement": "Ct", "setting": "[3]; E. faecalis, clinical sample of r100-r106, Ct control avg 21.027", "value": 33.467}, {"measurement": "Molecular Antibiotic Susceptibility Result", "setting": "[3]; E. faecalis, clinical sample of r107-r113", "value": "sensitive"}, {"measurement": "Ct", "setting": "[3]; E. faecalis, clinical sample of r107-r113, Ct control avg 20.529", "value": 27.555}, {"measurement": "Molecular Antibiotic Susceptibility Result", "setting": "[3]; E. faecalis, clinical sample of r114-r120", "value": "Sensitive (Antimicrobial wells with pathogen load detected below the control wells (typically >2 cycle thresholds later) may be reported as Sensitive)"}, {"measurement": "Ct", "setting": "[3]; E. faecalis, clinical sample of r114-r120, Ct control avg 20.909", "value": 27.767}, {"measurement": "Molecular Antibiotic Susceptibility Result", "setting": "[3]; E. faecalis, clinical sample of r151-r157", "value": "Sensitive (Antimicrobial wells with pathogen load detected below the control wells (typically >2 cycle thresholds later) may be reported as Sensitive)"}, {"measurement": "Ct", "setting": "[3]; E. faecalis, clinical sample of r151-r157, Ct control avg 18.551", "value": 32.884}, {"measurement": "Molecular Antibiotic Susceptibility Result", "setting": "[3]; K. aerogenes, clinical sample of r136-r150", "value": "Sensitive (Antimicrobial wells with pathogen load detected below the control wells (typically >2 cycle thresholds later) may be reported as Sensitive)"}, {"measurement": "Ct", "setting": "[3]; K. aerogenes, clinical sample of r136-r150, Ct control avg 13.854", "value": 16.046}, {"measurement": "Molecular Antibiotic Susceptibility Result", "setting": "[3]; K. pneumoniae, clinical sample of r121-r135", "value": "Resistant"}, {"measurement": "Ct", "setting": "[3]; K. pneumoniae, clinical sample of r121-r135, Ct control avg […]", "value": 14.269}, {"measurement": "Molecular Antibiotic Susceptibility Result", "setting": "[3]; M. morganii, clinical sample of r55-r69", "value": "Resistant"}, {"measurement": "Ct", "setting": "[3]; M. morganii, clinical sample of r55-r69, Ct control avg 12.09", "value": 10.538}, {"measurement": "Molecular Antibiotic Susceptibility Result", "setting": "[3]; M. morganii, clinical sample of r70-r84", "value": "Resistant"}, {"measurement": "Ct", "setting": "[3]; M. morganii, clinical sample of r70-r84, Ct control avg 11.677", "value": 11.867}, {"measurement": "Molecular Antibiotic Susceptibility Result", "setting": "[3]; P. mirabilis, clinical sample of r25-r39", "value": "Sensitive (Antimicrobial wells with pathogen load detected below the control wells (typically >2 cycle thresholds later) may be reported as Sensitive)"}, {"measurement": "Ct", "setting": "[3]; P. mirabilis, clinical sample of r25-r39, Ct control avg 11.801", "value": 29.219}, {"measurement": "Molecular Antibiotic Susceptibility Result", "setting": "[3]; P. mirabilis, clinical sample of r40-r54", "value": "Sensitive (Antimicrobial wells with pathogen load detected below the control wells (typically >2 cycle thresholds later) may be reported as Sensitive)"}, {"measurement": "Ct", "setting": "[3]; P. mirabilis, clinical sample of r40-r54, Ct control avg 10.06", "value": 30.995}]}
